Patent US10375956B2, “Herbicidally active 2-(substituted-phenyl)-cyclopentane-1,3-dione compounds and derivatives thereof” (Syngenta Limited, priority 2013, dated 2019)

Legend:
Format in all cases: in vivo
[1] = test system: Zea mays (ZEAMX, corn/maize); test: Test 1 glasshouse assay, pre-emergence herbicidal activity; settings: 312 h, visual evaluation after 13 days, read-out: Percentage phytotoxicity ZEAMX
Method: (§1) Seeds of a variety of test species are sown in standard soil in pots. After cultivation for one day (pre-emergence) or after 8 days cultivation (post-emergence) under controlled conditions in a glasshouse (at 24/16° C., day/night; 14 hours light; 65% humidity), the plants are sprayed with an aqueous spray solution derived from the formulation of the “technical” (i.e. unformulated) active ingredient in acetone/water (50:50) solution containing 0.5% Tween 20 (polyoxyethylene sorbitan monolaurate, CAS Registry Number 9005-64-5). The test plants are then grown on under controlled conditions in a glasshouse (at 24/16° C., day/night; 14 hours light; 65% humidity) and watered twice daily. After 13 days for pre- or post-emergence, the test is evaluated visually, and an assessed percentage phytotoxicity score is given for each herbicidal application on each plant species (where 100%=total damage to plant; 0%=no damage to plant).
(§2) Test plants include the following: Abutilon theophrasti (ABUTH), Amaranthus retroflexus (AMARE): these are dicotyledonous (broadleaved) weeds. Setaria faberi (SETFA), Alopecurus myosuroides (ALOMY), Echinochloa crus-galli (ECHCG): these are grassy monocotyledonous weeds. Also: Zea mays (ZEAMX, corn/maize), which can be a grassy weed (“volunteer” corn) in some circumstances.

[2] = test system: Abutilon theophrasti (ABUTH); test: as above; settings: 312 h, visual evaluation after 13 days, read-out: Percentage phytotoxicity ABUTH
Method: as §1, §2

Setaria faberi (SETFA) [3] = test: as above; settings: 312 h, visual evaluation after 13 days, read-out: Percentage phytotoxicity SETFA
Method: as §1, §2

[4] = test system: Echinochloa crus-galli (ECHCG); test: as above; settings: 312 h, visual evaluation after 13 days, read-out: Percentage phytotoxicity ECHCG
Method: as §1, §2

[5] = test system: Alopecurus myosuroides (ALOMY); test: as above; settings: 312 h, visual evaluation after 13 days, read-out: Percentage phytotoxicity ALOMY
Method: as §1, §2

[6] = test system: Amaranthus retroflexus (AMARE); test: as above; settings: 312 h, visual evaluation after 13 days, read-out: Percentage phytotoxicity AMARE
Method: as §1, §2

[7] = test system: Triticum aestivum (TRZAW, winter wheat); test: Test 1 glasshouse assay, post-emergence herbicidal activity; settings: 312 h, post-emergence (Example 1B Table 2), after 13 days, crop plant, read-out: Percentage phytotoxicity TRZAW
Method: as §1
(§3) Lolium perenne (LOLPE), Alopecurus myosuroides (ALOMY), Echinochloa crus-galli (ECHCG), and Avena fatua (AVEFA); these are all grassy monocotyledonous weeds. Cool climate crop plant: Triticum aestivum (TRZAW, winter wheat).

Avena fatua (AVEFA) = test: as above; settings: 312 h, post-emergence (Example 1B Table 2), after 13 days, read-out: Percentage phytotoxicity AVEFA
Method: as §1, §3

Lolium perenne (LOLPE) = test: as above; settings: 312 h, post-emergence (Example 1B Table 2), after 13 days, read-out: Percentage phytotoxicity LOLPE
Method: as §1, §3

[8] = test system: Zea mays (ZEAMX, corn/maize); test: as above; settings: 312 h, post-emergence (Example 1B Table 1), after 13 days, read-out: Percentage phytotoxicity ZEAMX
Method: as §1
(§4) Test plants include the following: Abutilon theophrasti (ABUTH) and Amaranthus retroflexus (AMARE); these are all dicotyledonous (broadleaved) weeds. Setaria faberi (SETFA), Alopecurus myosuroides (ALOMY), and Echinochloa crus-galli (ECHCG); these are all grassy monocotyledonous weeds. Also: Zea mays (ZEAMX, corn/maize), which can be a grassy weed (“volunteer” corn) in some circumstances.

[9] = test system: Abutilon theophrasti (ABUTH); test: as above; settings: 312 h, post-emergence (Example 1B Table 1), after 13 days, read-out: Percentage phytotoxicity ABUTH
Method: as §1, §4

Setaria faberi (SETFA) [10] = test: as above; settings: 312 h, post-emergence (Example 1B Table 1), after 13 days, read-out: Percentage phytotoxicity SETFA
Method: as §1, §4

[11] = test system: Amaranthus retroflexus (AMARE); test: as above; settings: 312 h, post-emergence (Example 1B Table 1), after 13 days, read-out: Percentage phytotoxicity AMARE
Method: as §1, §4

[12] = test system: Echinochloa crus-galli (ECHCG); test: as above; settings: 312 h, after 13 days, read-out: Percentage phytotoxicity ECHCG
Method: as §1, §4, §3

[13] = test system: Alopecurus myosuroides (ALOMY); test: as above; settings: 312 h, after 13 days, read-out: Percentage phytotoxicity ALOMY
Method: as §1, §4, §3

[14] = post-emergence (Example 1B Table 1), 31.25 g/ha
[15] = post-emergence (Example 1B Table 1)
[16] = post-emergence (Example 1B Table 2), 62.5 g/ha
[17] = post-emergence (Example 1B Table 2)

SMILES | pest or weed control at 250 g/ha [1] [%] | pest or weed control at 250 g/ha [2] [%] | pest or weed control at 250 g/ha (Setaria faberi (SETFA) [3]) [%] | pest or weed control at 250 g/ha [4] [%] | pest or weed control at 250 g/ha [5] [%] | pest or weed control at 250 g/ha [6] [%] | pest or weed control at 250 g/ha [8] [%] | pest or weed control at 250 g/ha [9] [%] | pest or weed control at 250 g/ha (Setaria faberi (SETFA) [10]) [%] | pest or weed control at 250 g/ha [11] [%] | pest or weed control at 250 g/ha [12, 15] [%] | pest or weed control at 250 g/ha [13, 15] [%] | further results
C#CCC1CC(=O)C(c2c(C)cc(-c3ncc(Cl)cn3)cc2C)C1=O (stereo not shown) [Compound A5, 2-[4-(5-chloropyrimidin-2-yl)-2,6-dimethylphenyl]-4-prop-2-ynylcyclopentane-1,3-dione] | 100 | 70 | 100 | 100 | 100 | 100 | 100 | 90 | 100 | 90 | 100 | 100 | plant injury at 62.5 g/ha ([7]; 62.5 g/ha): 80%; plant injury at 250 g/ha ([7]; 250 g/ha): 90%; pest or weed control at 62.5 g/ha (Avena fatua (AVEFA); 62.5 g/ha): 100%; pest or weed control at 250 g/ha (Avena fatua (AVEFA); 250 g/ha): 100%; pest or weed control at 62.5 g/ha (Lolium perenne (LOLPE); 62.5 g/ha): 90%; pest or weed control at 250 g/ha (Lolium perenne (LOLPE); 250 g/ha): 100%; pest or weed control at 31.25 g/ha ([8]; 31.25 g/ha): 100%; pest or weed control at 31.25 g/ha ([9]; 31.25 g/ha): 30%; pest or weed control at 31.25 g/ha (Setaria faberi (SETFA) [10]; 31.25 g/ha): 100%; pest or weed control at 31.25 g/ha ([11]; 31.25 g/ha): 30%; pest or weed control at 31.25 g/ha [12, 14]: 100%; pest or weed control at 62.5 g/ha [12, 16]: 100%; pest or weed control at 250 g/ha [12, 17]: 100%; pest or weed control at 31.25 g/ha [13, 14]: 80%; pest or weed control at 62.5 g/ha [13, 16]: 90%; pest or weed control at 250 g/ha [13, 17]: 100%
C#CCC1CC(=O)C(c2c(C)cc(-n3cc(Cl)cn3)cc2C)C1=O (stereo not shown) [Compound A9] | 80 | 40 | 100 | 100 | 70 | 70 | 100 | 80 | 100 | 80 | 100 | 100 | –
